We go through four compounds from patent US6489440B1, “Cyclic compounds” (Basilea Pharmaceutica AG, priority 1998, dated 2002).

Data set [1] in a line: Acute toxicity on administration to mice for 4 weeks. Type of data set: in vivo. The note with it: 5 mg/kg and 30 mg/kg.
A further data set is described as follows: Solubility. Conditions: solvents in which soluble.
Data set [2] concerns Aspegillus fumigatus CF1003. The data set can be described thus: In vitro antifungal activity, broth micro-dilution. The note with it: YNB with 0.2% agarose, 1-2 days at 35° C. Type of data set: cell-based. The protocol:
(§1) The in vitro antifungal activities of the representative Aerothricins of the present study were evaluated by determining the 50% inhibitory concentration (IC50), which was calculated as the lowest concentration of an antifungal to inhibit the growth of fungus to […] turbidity compared with the drug-free control growth spectrophotometrically.
(§2) The IC50 values were determined by the broth micro-dilution procedure based on NCCLS Approved Standard with the following minor modifications (National Committee for Clinical Laboratory Standards. (1997) Reference method for broth dilution antifungal susceptibility testing for yeasts. Approved standard. Document M27-A). Yeast Nitrogen Base (YNB; Difco Lab.) supplemented with 1% glucose and 0.25% K2HPO4 was used as testing medium for yeast, the same medium solidified with 0.2% low melting point agarose (BRL) was used for filamentous fungi. Inoculum size was 1-3×10^4 cells/ml, and incubation was performed for 1-2 days at 35° C.
(In broth dilution the organism is exposed to a series of concentrations in liquid medium.)

In the next data set the test system is Candida albicans CY1002. The data set can be described thus: In vitro antifungal activity, broth micro-dilution. The class given is cell-based. Conditions: YNB medium, 1-2 days at 35° C. Here is the method: as §1, §2
The next data set deals with Fusarium solani CF1088. The data set can be described thus: In vitro antifungal activity, broth micro-dilution. The note with it: YNB with 0.2% agarose, 1-2 days at 35° C. The class given is cell-based. The protocol:
as §1, §2

The test system of a further data set is Candida albicans. Briefly: In vivo antifungal efficacy, systemic candidiasis in mice. Details: species or system Crj: CD-1 (ICR) mice. Conditions: i.v., b.i.d×1 day followed by q.d.×2 days; from survival on day 14. The protocol:
Mice of a conventional immunocompetent mouse strain, Crj: CD-1 (ICR) were used for experimental infection models of systemic candidiasis. 4 weeks old Crj: CD-1 (ICR) mice were used for systemic candidiasis by injecting Candida albicans 5×10^6 conidia/mouse via the tail vein. Treatments were given twice (0, 4 h after infection) on the first day and once daily on following 2 days for systemic candidiasis (b.i.d×1 day followed by q.d.×2 days), intravenously (i.v.). 50% of effective dose (ED50) values was calculated from the survival number at each dose on day 14.

Molecules are shown by their SMILES. Numbered stars: 1 amine (or outer) side, 2 acyl side, 3 side chain; on linkers, the order of the positions; unused ones are H or OH. Bridge positions count the residues as written; N and C are the ends. Square brackets hold non-standard residues; d marks the D form. Peptide text beside a SMILES is read from it. ξ: configuration not given here. X3 = CCCCCCCOc1ccc(-c2ccc(CC[C@H](CC(=O)[*:1])N[*:2])cc2)cc1; ξTyr(3-NO2) = NC(Cc1ccc(O)c([N+](=O)[O-])c1)C(=O)O; X7 = CCCCCCCCCCCCC(C)[C@H](CC(=O)[*:1])O[*:2]; X4 = CC(=O)Nc1cc(CC(N[*:1])C(=O)[*:2])ccc1O; X2 = NC(=O)CC(O)C(N[*:1])C(=O)[*:2]; X1 = O=C(C1C(O)CCN1[*:1])[*:2]; ξY = NC(Cc1ccc(O)cc1)C(=O)O; ξHyp = O=C(O)C1CC(O)CN1; ξOrn = NCCCC(N)C(=O)O; ξT = CC(O)C(N)C(=O)O; ξV = CC(C)C(N)C(=O)O; ξA = CC(N)C(=O)O

Consider `CCCCCCCCCCCCC(C)[C@@H]1CC(=O)NC(C(C)O)C(=O)NC(C)C(=O)NC(Cc2ccc(O)cc2)C(=O)NC(C(C)C)C(=O)N2CC(O)CC2C(=O)NC(C(C)O)C(=O)NC(C(C)O)C(=O)N2CCC(O)C2C(=O)NC(C(O)CC(N)=O)C(=O)NCC(=O)NC(C(C)O)C(=O)NC(CCCN)C(=O)O1` (stereo partly drawn) [Aerothricin 1] ([ξT][ξA][ξY][ξV][ξHyp][ξT][ξT][X1][X2]G[ξT][ξOrn]; linker N-C via X7), for which the acute toxicity result in data set [1] is “no acute toxicity”. In addition, the Solubility result in “Solubility” is given as “Soluble: water, methanol, dimethylsulfoxide”.

In the case of `CCCCCCCOc1ccc(-c2ccc(CC[C@@H]3CC(=O)NC(C(C)O)C(=O)NC(C)C(=O)NC(Cc4ccc(O)cc4)C(=O)NC(C(C)C)C(=O)N4CC(O)CC4C(=O)NC(C(C)O)C(=O)NC(C(C)O)C(=O)N4CCC(O)C4C(=O)NC(C(O)CC(N)=O)C(=O)NCC(=O)NC(C(C)O)C(=O)NC(CCCN)C(=O)N3)cc2)cc1` (stereo partly drawn) [Aerothricin 43] ([ξT][ξA][ξY][ξV][ξHyp][ξT][ξT][X1][X2]G[ξT][ξOrn]; linker N-C via X3), the “In vitro Antifungal activity, IC50” value in data set [2] worked out at 0.04 µg/mL; with Candida albicans CY1002, 0.05 µg/mL; in the data set on Fusarium solani CF1088, 0.70 µg/mL.

Turning to `CCCCCCCOc1ccc(-c2ccc(CC[C@@H]3CC(=O)NC(C(C)O)C(=O)NC(C)C(=O)NC(Cc4ccc(O)c([N+](=O)[O-])c4)C(=O)NC(C(C)C)C(=O)N4CC(O)CC4C(=O)NC(C(C)O)C(=O)NC(C(C)O)C(=O)N4CCC(O)C4C(=O)NC(C(O)CC(N)=O)C(=O)NCC(=O)NC(C(C)O)C(=O)NC(CCCN)C(=O)N3)cc2)cc1` (stereo partly drawn) [Aerothricin 55] ([ξT][ξA][ξTyr(3-NO2)][ξV][ξHyp][ξT][ξT][X1][X2]G[ξT][ξOrn]; linker N-C via X3), the “In vitro Antifungal activity, IC50” value in data set [2] was determined as 0.04 µg/mL; with Candida albicans CY1002 it was 0.04 µg/mL; in the data set on Fusarium solani CF1088, 0.39 µg/mL. For the same compound, the “In vivo antifungal activity against systemic candidiasis in mice, ED50 on day 14” value in the data set with Candida albicans is below 0.3 mg/kg.

Regarding `CCCCCCCOc1ccc(-c2ccc(CC[C@@H]3CC(=O)NC(C(C)O)C(=O)NC(C)C(=O)NC(Cc4ccc(O)c(NC(C)=O)c4)C(=O)NC(C(C)C)C(=O)N4CC(O)CC4C(=O)NC(C(C)O)C(=O)NC(C(C)O)C(=O)N4CCC(O)C4C(=O)NC(C(O)CC(N)=O)C(=O)NCC(=O)NC(C(C)O)C(=O)NC(CCCN)C(=O)N3)cc2)cc1` (stereo partly drawn) [Aerothricin 57] ([ξT][ξA][X4][ξV][ξHyp][ξT][ξT][X1][X2]G[ξT][ξOrn]; linker N-C via X3), the “In vitro Antifungal activity, IC50” value in data set [2] came to 0.05 µg/mL; in the data set on Candida albicans CY1002, 0.14 µg/mL; in the data set with Fusarium solani CF1088, 1.30 µg/mL.
